Patent US9512108B2, “9,9,10,10-Tetrafluoro-9,10-dihydrophenanthrene hepatitis C virus inhibitor and application thereof” (NANJING SANHOME PHARMACEUTICAL CO., LTD., priority 2013, dated 2016)

Tests used:
Type in all cases: cell-based
HCV genotype 1b replicon = assay: Anti-HCV-1b replicon activity (luciferase, Bright-Glo); details: Hepatitis C virus, Huh-7, 72 h, read-out: EC50 against HCV-1b replicon
Method: (§1) Each of the compounds prepared in the above examples of the present invention was dissolved at 10 mM in DMSO, then diluted to 50 μM with DMEM complete medium, then diluted to 20 nM with complete medium containing 0.5% DMSO, and then serially diluted by 3-fold, to obtain a total of 10 concentrations.
(§2) HCV 1b replicon cells, i.e., Huh7 cell line stably transfected with HCV genotype 1b replicon, were provided by WuXi AppTec (Shanghai) Co., Ltd. Specific preparation methods of Huh7 lb replicon cell system can be found in Lohmann V, Korner F, Koch J, Herian U, Theilmann L, Bartenschlager R., Replication of subgenomic hepatitis C virus RNAs in a hepatoma cell line, Science 285 (5424): 110-113 (1999).
(§3) 1) Preparation of compounds: adding 75 μl of the compounds of the present invention at the above concentration gradient to a 96-well plate using POD810 system, with each concentration for each compound in duplicate;
(§4) 2) Preparation of cells: collecting HCV 1b replicon cells in logarithmic phase and resuspending them in DMEM complete medium, and then adding 75 μl of the cell suspension to each well of the above 96-well plate (8×10^3 cells/well); at the same time, establishing zero percent effect (ZPE) control group and hundred percent effect (HPE) control group, with ZPE group using complete culture medium containing 0.5% DMSO instead of the compound, and the HPE group merely containing DMEM medium in the wells.
(§5) 3) Cell culture: placing the 96-well plate in a 37° C., 5% CO2 incubator and culturing for 3 days.
(§6) 5) Anti-HCV replicon activity assay: adding luciferase luminescence substrate Bright-Glo to each well, and detecting luminescence signal values using the multimode microplate reader within 5 min, with the raw data (RLU) being used for calculation of the anti-HCV activities of the compounds;
(§7) 6) Data processing: processing the raw data using the following formula into the inhibition percentage of the compound against HCV replicon (Inhibition %) and the percentage of cell viability (Viability %): Inhibition %=(RLUZPE−RLUCPD)/(RLUZPE−RLUHPE)×100 Viability %=(RFUCPD−RFUHPE)/(RFUZPE−RFUHPE)×100 wherein CPD: the fluorescence signal value of the well of the compound; ZPE (zero percent effect): the fluorescence signal value of the zero percent effect control; HPE (hundred percent effect): the fluorescence signal value of the hundred percent effect control.
(§8) The Inhibition % and Viability % were introduced into GraphPad Prism software for data processing, respectively, to obtain the half effective concentration EC50 of the compound against HCV replicon and the half cytotoxic concentration CC50.

[1] = Cell viability test (CellTiter-Fluor) in HCV 1b replicon cells; details: human, HCV 1b replicon Huh7 cells, 3 days culture, read-out: CC50 (half cytotoxic concentration)
Method: as §1, §2, §3, §4, §5
(§9) 4) Cell viability test: after adding detection reagent for fluorescence assay of cell growth to each well and culturing the cells in a 37° C., 5% CO2 incubator for one hour, detecting the fluorescence signal values using the multimode microplate reader, with the raw data (RFU) being used for calculation of the cytotoxicity of the compounds;
as §7, §8

HCV genotype 1a replicon = assay: Anti-HCV-1a replicon activity (luciferase, Bright-Glo); details: Hepatitis C virus, Huh-7, 72 h, read-out: EC50 against HCV-1a replicon
Method: as §3, §4, §5, §6, §7, §8
(§10) HCV 1a replicon cells, i.e., Huh7 cell line stably transfected with HCV genotype 1a replicon (provided by WuXi AppTec (Shanghai) Co., Ltd.) were used as the experimental cells. As described above for the HCV 1b replicon cell system, the HCV genotype 1a replicon cell systems were similarly prepared.
(§11) The anti-HCV-1a activities of the compounds of the present invention were tested according to the method for testing the anti-HCV-1b replicon activity in Experimental Example 1.

[2] = Cell viability test (CellTiter-Fluor) in HCV 1a replicon cells; details: human, Huh7 cells stably transfected with HCV genotype 1a replicon; HCV 1a replicon Huh7 cells, 3 days culture; read-out: CC50 (half cytotoxic concentration)
Method: as §9, §7, §8, §10, §11

[3] = Huh7 cells stably transfected with HCV genotype 1b replicon

| Compound | EC50 (HCV genotype 1b replicon) [pM] | CC50 at 3 days [1, 3] [pM] | EC50 (HCV genotype 1a replicon) [pM] | CC50 at 3 days [2] [pM] | CC50 at 3 days [1] [pM] |
| --- | --- | --- | --- | --- | --- |
| COC(=O)N[C@H](C(=O)N1CCC[C@H]1c1ncc(-c2ccc3c(c2)C(F)(F)C(F)(F)c2cc(-c4cnc([C@@H]5CCCN5C(=O)[C@@H](NC(=O)OC)C(C)C)[nH]4)ccc2-3)[nH]1)C(C)C [Example 1, Dimethyl (2S,2′S)-1,1′-((2S,2′S)-2,2′-(5,5′-(9,9,10,10-tetrafluoro-9,10-dihydrophenanthren-2,7-diyl)bis(1H-imidazol-5,2-diyl))bis(pyrrolidin-2,1-diyl))bis(3-methyl-1-oxobutan-2,1-diyl)dicarbamate] | 4.6 | > 10000 | 190 | > 10000 | – |
| COC(=O)N[C@H](C(=O)N1CCCC1c1ncc(-c2ccc(-c3ccc4c(c3)C(F)(F)C(F)(F)c3cc(-c5ccc(-c6cnc([C@@H]7CCCN7C(=O)[C@@H](NC(=O)OC)C(C)(C)C)[nH]6)cc5)ccc3-4)cc2)[nH]1)C(C)(C)C (stereo partly drawn) [Example 2, dimethyl (2S,2′S)-1,1′-((2S,2′S)-2,2′-(5,5′-(4,4′-(9,9,10,10-tetrafluoro-9,10-dihydrophenanthren-2,7-diyl)bis(4,1-phenylene))bis(1H-imidazol-5,2-diyl))bis(pyrrolidin-2,1-diyl))bis(3,3-dimethyl-1-oxobutan-2,1-diyl)dicarbamate] | 17 | > 10000 | – | – | – |
| COC(=O)N[C@H](C(=O)N1[C@@H]2CC[C@@H](C2)[C@H]1c1ncc(-c2ccc3c(c2)C(F)(F)C(F)(F)c2cc(-c4cnc([C@@H]5[C@H]6CC[C@H](C6)N5C(=O)[C@@H](NC(=O)OC)C(C)C)[nH]4)ccc2-3)[nH]1)C(C)C [Example 3, Dimethyl (2S,2′S)-1,1′-((1R,1′R,3S,3′S,4S,4′S)-3,3′-(5,5′-(9,9,10,10-tetrafluoro-9,10-dihydrophenanthren-2,7-diyl)bis(1H-imidazol-5,2-diyl))bis(2-azabicyclo[2.2.1]heptan-3,2-yl))bis(3-methyl-1-oxobutan-2,1-diyl)dicarbamate] | 17 | – | – | – | > 10000 |
| COC(=O)N[C@H](C(=O)N1[C@@H]2CC[C@@H](C2)[C@H]1c1ncc(-c2ccc3c(c2)C(F)(F)C(F)(F)c2cc(-c4cnc([C@@H]5[C@H]6CC[C@H](C6)N5C(=O)[C@@H](NC(=O)OC)C(C)(C)C)[nH]4)ccc2-3)[nH]1)C(C)(C)C [Example 4, Dimethyl (2S,2′S)-1,1′-((1R,1′R,3S,3′S,4S,4′S)-3,3′-(5,5′-(9,9,10,10-tetrafluoro-9,10-dihydrophenanthren-2,7-diyl)bis(1H-imidazol-5,2-diyl))bis(2-azabicyclo[2.2.1]heptan-3,2-yl))bis(3,3-dimethyl-1-oxobutan-2,1-diyl)dicarbamate] | 47 | > 10000 | – | – | – |
| COC(=O)N[C@H](C(=O)N1[C@@H]2CC[C@@H](C2)[C@H]1c1ncc(-c2ccc3c(c2)C(F)(F)C(F)(F)c2cc(-c4cnc([C@@H]5[C@H]6CC[C@H](C6)N5C(=O)[C@@H](NC(=O)OC)[C@@H](C)O)[nH]4)ccc2-3)[nH]1)[C@@H](C)O [Example 5, Dimethyl (2S,2′S,3R,3′R)-1,1′-((1R,1′R,3S,3′S,4S,4′S)-3,3′-(5,5′-(9,9,10,10-tetrafluoro-9,10-dihydrophenanthren-2,7-diyl)bis(1H-imidazol-5,2-diyl))bis(2-azabicyclo[2.2.1]heptan-3,2-diyl))bis(3-hydroxy-1-oxobutan-2,1-diyl)dicarbamate] | 41 | – | – | – | > 10000 |
| COC(=O)N[C@H](C(=O)N1[C@@H]2CC[C@@H](C2)[C@H]1c1ncc(-c2ccc3c(c2)C(F)(F)C(F)(F)c2cc(-c4cnc([C@@H]5[C@H]6CC[C@H](C6)N5C(=O)[C@@H](NC(=O)OC)[C@@H](C)OC)[nH]4)ccc2-3)[nH]1)[C@@H](C)OC [Example 6, Dimethyl (2S,2′S,3R,3′R)-1,1′-((1R,1′R,3S,3′S,4S,4′S)-3,3′-(5,5′-(9,9,10,10-tetrafluoro-9,10-dihydrophenanthren-2,7-diyl)bis(1H-imidazol-5,2-diyl))bis(2-azabicyclo[2.2.1]heptan-3,2-diyl))bis(3-methoxy-1-oxobutan-2,1-diyl)dicarbamate] | 14 | > 10000 | – | – | – |
| COC(=O)N[C@H](C(=O)N1CCC[C@H]1c1ncc(-c2ccc3c(c2)C(F)(F)C(F)(F)c2cc(-c4cnc([C@@H]5CCCN5C(=O)[C@@H](NC(=O)OC)C(C)(C)C)[nH]4)ccc2-3)[nH]1)C(C)(C)C [Example 7, Dimethyl (2S,2′S)-1,1′-((2S,2′S)-2,2′-(5,5′-(9,9,10,10-tetrafluoro-9,10-dihydrophenanthren-2,7-diyl)bis(1H-imidazol-5,2-diyl))bis(pyrrolidin-2,1-diyl))bis(3,3-dimethyl-1-oxobutan-2,1-diyl)dicarbamate] | 6.3 | > 10000 | – | – | – |
| COC(=O)N[C@H](C(=O)N1CCC[C@H]1c1ncc(-c2ccc3c(c2)C(F)(F)C(F)(F)c2cc(-c4cnc([C@@H]5CCCN5C(=O)[C@@H](NC(=O)OC)[C@@H](C)O)[nH]4)ccc2-3)[nH]1)[C@@H](C)O [Example 8, Dimethyl ((2S,2′S,3R,3′R)-((2S,2′S)-2,2′-(5,5′-(9,9,10,10-tetrafluoro-9,10-dihydrophenanthren-2,7-diyl)bis(1H-imidazol-5,2-diyl))bis(pyrrolidin-2,1-diyl))bis(3-hydroxy-1-oxobutan-2,1-diyl))dicarbamate] | 58 | > 10000 | – | – | – |
| COC(=O)N[C@H](C(=O)N1CC2(C[C@H]1c1ncc(-c3ccc4c(c3)C(F)(F)C(F)(F)c3cc(-c5ccc6nc([C@@H]7CCCN7C(=O)[C@@H](NC(=O)OC)C(C)C)[nH]c6c5)ccc3-4)[nH]1)OCCO2)C(C)C [Example 11, Methyl N-((2S)-1-((S)-2-(6-(7-((S)-2-(7-((S)-2-((methoxycarbonyl)amino)-3-methylbutanoyl)-1,4-dioxa-7-azaspiro[4.4]nonan-8-yl)-1H-imidazol-5-yl)-9,9,10,10-tetrafluoro-9,10-dihydrophenanthren-2-yl)-1H-benzo[d]imidazol-2-yl)pyrrolidin-1-yl)-3-methyl-1-oxobutan-2-yl)carbamate] | 6 | > 10000 | 79 | > 10000 | – |
| COC(=O)N[C@H](C(=O)N1CC2(CC2)C[C@H]1c1nc(-c2ccc3c(c2)C(F)(F)C(F)(F)c2cc(-c4ccc5nc([C@@H]6CCCN6C(=O)[C@@H](NC(=O)OC)C(C)C)[nH]c5c4)ccc2-3)c[nH]1)C(C)C [Example 12, Methyl N-((2S)-1-((S)-2-(6-(7-((S)-2-(5-((S)-2-((methoxycarbonyl)amino)-3-methylbutanoyl)-5-azaspiro[2.4]heptan-6-yl)-1H-imidazol-5-yl)-9,9,10,10-tetrafluoro-dihydrophenanthren-2-yl)-1H-benzo[d]imidazol-2-yl)pyrrolidin-1-yl)-3-methyl-1-oxobutan-2-yl)carbamate] | 8 | > 10000 | 61 | > 10000 | – |
| COC(=O)N[C@H](C(=O)N1CCC[C@H]1c1ncc(-c2ccc3c(c2)C(F)(F)C(F)(F)c2cc(-c4cnc([C@@H]5CCCN5C(=O)[C@@H](NC(=O)OC)[C@@H](C)OC)[nH]4)ccc2-3)[nH]1)[C@@H](C)OC [Example 13] | 56 | > 10000 | – | – | – |
